Assays:
[1] = tested on: K562-G185 cells (ABCB1/MDR1 transfectant); experiment: Hoechst 33342 efflux (side population, SP) in MDR1-transfected K562-G185 cells with and without inhibitors; assay type: cell-based, human; conditions: CD117- cells; Ho33342 8 microM and R123 0.13 microM, 90 min
Description: (§1) Cells were stained with anti-CD117 and incubated for 90 min in the presence of Ho33342 (8 microM, ˜5 microg/mL) and R123 (0.13 microM) with and without inhibitors. PI was added immediately before acquisition on the MoFlo flow cytometer in order to eliminate dead cells. Events were gated to exclude cell clusters and dead cells. The side population (SP) phenotype (blue gate) and R123 excluding cells (single parameter histogram left of the dashed line) were measured on CD117− (top panels) and CD117+ (bottom panels).
(§2) Here, the SP cells (within the blue gate in the left plots) is color evented blue, whereas SP negative cells are shown in gray.
(§3) Simultaneous measurement of R123 and Ho33342 dye efflux. […] Two cell lines were used, the parent line K562, which has a small subpopulation of CD117+ cells which constitutively express ABCG2 (BCRP1), and the ABCB1 (MDR1) transfectant line K562-G185 (39) (FIG. 9). G185 cells were maintained in vincristine (100 ng/mL) to select against ABCB1 negative cells.

[2] = tested on: ABCG2 (BCRP); experiment: Hoechst 33342 / R123 efflux (SP phenotype) in freshly isolated therapy naive non-small cell lung tumor cells; assay type: cell-based; conditions: human, probe Hoechst 33342; inhibitor 10 microM; coincubation with Hoechst 33342 8 microM and R123 0.13 microM, 90 minutes at 37° C.
Description: Antibody stained suspended tumor cells were incubated simultaneously with the ABCG2/ABCB1 substrate Hoechst 33342 (8 microM) plus the ABCB1 substrate rhodamine 123 (R123, 0.13 microM) for 90 minutes at 37° C. Propidium iodide (PI, 10 microg/mL) was added immediately before sample acquisition. All events were gated on PI excluding (live), non-hematopoietic singlets. Five million events were collected. This basic experimental design has been repeated, with modifications, on 10 samples from untreated breast, ovarian, gastric and lung tumors with consistent results.
SP (top panels) and non-SP cells (bottom panels) were further characterized: A proportion of SP cells also excluded the ABCB1 substrate dye R123. These accounted for 29% of the SP cells (color-evented red in the dot plots) and accounted for almost all of the cells with low forward and side light scatter consistent with a resting morphology (FIG. 5). […] A significant proportion of both SP and non-SP cells expressed CD90, often in combination with epithelial specific antigen, HEA.

[3] = tested on: parental K562 cells (native ABCG2); experiment: Hoechst 33342 efflux (side population, SP) in parental K562 cells with and without inhibitors; assay type: cell-based, human
Description: as §1, §2, §3

SMILES | effect on the side population (SP), in words [1] | inhibition at 90 min, 10 microM [2] | effect on Ho33342 transport, in words ([3]; CD117+ population of parental K562 cells) | inhibition of the native SP phenotype, in words ([3]; CD117- cells, native SP 1.42% of cells, Ho33342 8 microM, 90 min)
CC[C@]1(O)C[C@H]2CN(CCc3c([nH]c4ccccc34)[C@@](C(=O)OC)(c3cc4c(cc3OC)N(C=O)[C@H]3[C@@](O)(C(=O)OC)[C@H](OC(C)=O)[C@]5(CC)C=CCN6CC[C@]43[C@@H]65)C2)C1 [vincristine] | not affected | – | – | –
COc1ccc2c3c([nH]c2c1)[C@H](C=C(C)C)N1C(=O)[C@@H]2CCCN2C(=O)[C@@H]1C3 [fumitremorgin] | not affected | 75% | abrogates | equally inhibited
